Assay [1] deals with T1, TDO in A172 cells (Homo sapiens, UniProt P48775).
T1 construct: endogenous in cells; host or cells: A172 cells
The experiment in a line: TDO cell-based assay, kynurenine production in A172 cells. To be noted: A 172; final concentration of the compound 10 μM; rate relative to culture without compound. As to the method:
A172 cells (3.0×10^5 cells/mL) suspended in a culture medium for assay (PRMI-1640; Wako 186-02155, 5% FBS, 50 units/mL penicillin, and 50 μg/mL streptomycin) were inoculated at 100 μL/well to a transparent 96-well flat-bottomed plate and cultured at 37° C. for 24 hours in 5% CO2. The culture medium was removed from the cells thus cultured. A culture medium for assay was added at 80 μL/well, and further, a compound solution was added at 10 μL/well. The cells were preincubated for 1 hour. Then, the whole amount was brought to 100 μL/well by the addition of 10 μL/well of a 5 mM aqueous tryptophan solution (final concentration of L-tryptophan: 524 μM), and the cells were cultured for 24 hours. After the culture, absorbance was measured at 460 nm using SpectraMax MSSK (Molecular Devices, LLC) (background measurement). After the measurement, a kynurenine quantification reagent (prepared with 7% [v/v] aqueous trichloroacetic acid solution and a solution of 2% [w/v] p-dimethylbenzaldehyde in acetic acid at 2:5 [v/v]) was added at 200 μL/well and reacted for 5 minutes, followed by the measurement of absorbance at 460 nm again. The rate of kynurenine production was calculated according to the following expression. Rate of kynurenine production (%) for each compound in the case of using A172 cells={(Absorbance at 460 nm in the tryptophan-containing culture medium comprising the A172 cells and the solution of the compound of the present invention−Absorbance of the background)/(Absorbance at 460 nm in the tryptophan-containing culture medium without the addition of the compound solution−Absorbance of the background)}×100

Assay [2] deals with T2, IDO in A431 cells (Homo sapiens, UniProt P14902).
T2 construct: endogenous in cells; host or cells: A431 cells, IFN-γ stimulated
As to the kind of experiment: IDO cell-based assay, kynurenine production in IFN-γ stimulated A431 cells. The note with it: A-431, 24 h; final concentration of the compound 10 μM; rate relative to culture without compound. How it is done:
A431 cells (3.0×10^5 cells/mL) suspended in a culture medium for assay (D-MEM; Wako 040-30095, 5% FBS, 50 units/mL penicillin, 50 μg/mL streptomycin, and 2 mM L-glutamine) were inoculated at 100 μL/well to a transparent 96-well flat-bottomed plate and cultured at 37° C. for 24 hours in 5% CO2. The culture medium was removed from the cells thus cultured. A tryptophan-containing culture medium (culture medium for assay supplemented with 178 μM L-tryptophan) was added at 80 μL/well, and further, a compound solution was added at 10 μL/well. The cells were preincubated for 1 hour. Then, the whole amount was brought to 100 μL/well by the addition of 10 μL/well of IFN-γ diluted into 100 ng/mL with a tryptophan-containing culture medium, and the cells were cultured for 24 hours. After the culture, absorbance was measured at 460 nm using SpectraMax MSSK (Molecular Devices, LLC) (background measurement). After the measurement, a kynurenine quantification reagent (prepared with 7% [v/v] aqueous trichloroacetic acid solution and a solution of 2% [w/v] p-dimethylbenzaldehyde in acetic acid at 2:5 [v/v]) was added at 200 μL/well and reacted for 5 minutes, followed by the measurement of absorbance at 460 nm again. The rate of kynurenine production was calculated according to the following expression. Rate of kynurenine production (%) for each compound in the case of using A431 cells={(Absorbance at 460 nm in the tryptophan-containing culture medium comprising the A431 cells and the solution of the compound of the present invention−Absorbance of the background)/(Absorbance at 460 nm in the tryptophan-containing culture medium without the addition of the compound solution−Absorbance of the background)}×100 TDO Cell-Based Assay Protocol

Assay [3] concerns the target rhTDO (recombinant human TDO) (Homo sapiens, UniProt P48775). The experiment in a line: Enzyme assay using rhTDO (rate of kynurenine production). In kind it is biochemical. To be noted: 2 h; final concentration of the compound 10 μM; rate relative to reaction without compound; read-out: rhTDO-mediated kynurenine production. How it is done:
4 μL of a compound solution was added to 176 μL of a rhTDO reaction solution (0.5 M potassium phosphate buffer (20 μL), 0.2 M ascorbic acid (20 μL), 0.5 mM methylene blue (4 μL), 10 mg/mL catalase (2 μL), H2O (128 μL), and rhTDO (2 μL)). The mixture was pipetted and preincubated at 37° C. for 10 minutes. Then, the whole amount was brought to 200 μL by the addition of 20 μL of a 20 mM aqueous tryptophan solution, and the mixture was pipetted again and reacted at 37° C. for 120 minutes. After the reaction, the enzymatic reaction was terminated by the addition of 40 μL of a 30% [v/v] aqueous trichloroacetic acid solution to the reaction solution. The mixture was well stirred by pipetting and heated at 50° C. for 15 minutes so that N-formylkynurenine was converted to kynurenine. The reaction solution thus heated was centrifuged (15,000 rpm, 5 min, 24° C.), and 150 μL of the supernatant was transferred to a transparent 96-well flat-bottomed plate, followed by the measurement of absorbance at 490 nm using SpectraMax M5 SK (background measurement). After the measurement, a solution of 2% [w/v] p-dimethylbenzaldehyde in acetic acid was added at 150 μL/well and reacted for 5 minutes, followed by the measurement of absorbance at 490 nm again. The rate of kynurenine production was calculated according to the following expression. Rate of kynurenine production (%) for each compound in the case of using rhTDO={(Absorbance at 490 nm in the tryptophan-containing aqueous solution comprising rhTDO and the compound of the present invention−Absorbance of the background)/(Absorbance at 490 nm in the tryptophan-containing aqueous solution without the addition of the compound solution−Absorbance of the background)}×100 IDO Cell-Based Assay Protocol

For assay [4], the target named is rhIDO (recombinant human IDO) (Homo sapiens, UniProt P14902). As to the kind of experiment: Enzyme assay using rhIDO (rate of kynurenine production). It counts as biochemical. The note with it: 2 h; final concentration of the compound 10 μM; rate relative to reaction without compound; read-out: rhIDO-mediated kynurenine production. How it is done:
Enzyme Assay Protocol Using rhIDO (Recombinant Human IDO)
4 μL of a compound solution was added to 176 μL of a rhIDO reaction solution (0.5 M potassium phosphate buffer (20 μL), 0.2 M ascorbic acid (20 μL), 0.5 mM methylene blue (4 μL), 10 mg/mL catalase (2 μL), H2O (128 μL), and rhIDO (2 μL)). The mixture was pipetted and preincubated at 37° C. for 10 minutes. Then, the whole amount was brought to 200 μL by the addition of 20 μL of a 2 mM aqueous tryptophan solution, and the mixture was pipetted again and reacted at 37° C. for 120 minutes. After the reaction, the enzymatic reaction was terminated by the addition of 40 μL of a 30% [v/v] aqueous trichloroacetic acid solution to the reaction solution. The mixture was well stirred by pipetting and heated at 50° C. for 15 minutes so that N-formylkynurenine was converted to kynurenine. The reaction solution thus heated was centrifuged (15,000 rpm, 5 min, 24° C.), and 150 μL of the supernatant was transferred to a transparent 96-well flat-bottomed plate, followed by the measurement of absorbance at 490 nm using SpectraMax MSSK (background measurement). After the measurement, a solution of 2% [w/v] p-dimethylbenzaldehyde in acetic acid was added at 150 μL/well and reacted for 5 minutes, followed by the measurement of absorbance at 490 nm again. The rate of kynurenine production was calculated according to the following expression. Rate of kynurenine production (%) for each compound in the case of using rhIDO={(Absorbance at 490 nm in the tryptophan-containing aqueous solution comprising rhIDO and the compound of the present invention−Absorbance of the background)/(Absorbance at 490 nm in the tryptophan-containing aqueous solution without the addition of the compound solution−Absorbance of the background)}×100 Enzyme Assay Protocol Using rhTDO (Recombinant Human TDO)

T2 sequence (P14902 whole entry): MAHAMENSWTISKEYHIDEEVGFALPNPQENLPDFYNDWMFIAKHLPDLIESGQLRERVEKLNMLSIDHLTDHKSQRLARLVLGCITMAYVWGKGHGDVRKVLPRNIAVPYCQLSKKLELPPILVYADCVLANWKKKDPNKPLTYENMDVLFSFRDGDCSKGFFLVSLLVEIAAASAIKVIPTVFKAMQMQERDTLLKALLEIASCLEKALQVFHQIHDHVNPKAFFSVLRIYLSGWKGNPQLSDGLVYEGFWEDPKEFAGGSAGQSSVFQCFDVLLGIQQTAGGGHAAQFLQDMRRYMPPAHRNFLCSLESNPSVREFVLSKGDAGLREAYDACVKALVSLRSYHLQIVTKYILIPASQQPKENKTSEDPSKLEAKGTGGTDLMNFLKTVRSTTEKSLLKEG
Chain of rhIDO (recombinant human IDO) (P14902 whole entry): as above
Chain of rhTDO (recombinant human TDO) (P48775 whole entry): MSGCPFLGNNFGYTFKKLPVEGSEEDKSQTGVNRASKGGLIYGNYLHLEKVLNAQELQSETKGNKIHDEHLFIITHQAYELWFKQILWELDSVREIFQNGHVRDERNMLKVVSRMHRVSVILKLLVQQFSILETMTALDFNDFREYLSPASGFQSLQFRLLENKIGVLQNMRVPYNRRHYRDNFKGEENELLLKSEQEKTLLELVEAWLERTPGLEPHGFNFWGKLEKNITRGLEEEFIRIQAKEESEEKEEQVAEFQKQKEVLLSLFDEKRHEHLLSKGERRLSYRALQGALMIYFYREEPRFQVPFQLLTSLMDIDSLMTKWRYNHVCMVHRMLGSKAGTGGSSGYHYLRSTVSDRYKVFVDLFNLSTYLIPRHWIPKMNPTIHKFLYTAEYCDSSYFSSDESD
T1 sequence (P48775 whole entry): as above

For `Clc1ccc(Cl)c(CN2CN=C(SCc3ccccc3CSC3=NCN(Cc4cc(Cl)ccc4Cl)CN3)NC2)c1` [Compound 18, 1,2-bis(((5-(2,5-dichlorobenzyl)-1,4,5,6-tetrahydro-1,3,5-triazin-2-yl)thio)methyl)benzene], the remaining activity at 10 µM in assay [1] was -1%; in assay [2] it was 7%; in assay [3], 27%; in assay [4], 23%.
Consider `Brc1cccc(CCN2CN=C(SCc3ccccc3CSC3=NCN(CCc4cccc(Br)c4)CN3)NC2)c1` [Compound 19, 1,2-bis(((5-(3-bromophenethyl)-1,4,5,6-tetrahydro-1,3,5-triazin-2-yl)thio)methyl)benzene], for which the remaining activity at 10 µM in assay [1] came out at 1%; in assay [2], 5%; in assay [3], 46%; in assay [4], 43%.
Turning to `Brc1ccc(CCN2CN=C(SCc3ccccc3CSC3=NCN(CCc4ccc(Br)cc4)CN3)NC2)cc1` [Compound 20, 1,2-bis(((5-(4-bromophenethyl)-1,4,5,6-tetrahydro-1,3,5-triazin-2-yl)thio)methyl)benzene], the remaining activity at 10 µM came out at 0% in assay [1], 6% in assay [2], 44% in assay [3] and 27% in assay [4].
Take `Clc1ccc(CCN2CN=C(SCc3ccccc3CSC3=NCN(CCc4ccc(Cl)cc4Cl)CN3)NC2)c(Cl)c1` [Compound 21, 1,2-bis(((5-(2,4-dichlorophenethyl)-1,4,5,6-tetrahydro-1,3,5-triazin-2-yl)thio)methyl)benzene]: the remaining activity at 10 µM in assay [1] is -1%; in assay [2], 6%; in assay [3], 54%; in assay [4], 30%.
In the same order, the values of `Clc1ccc(CCN2CN=C(SCc3ccccc3CSC3=NCN(CCc4ccc(Cl)c(Cl)c4)CN3)NC2)cc1Cl` [Compound 22, 1,2-bis(((5-(3,4-dichlorophenethyl)-1,4,5,6-tetrahydro-1,3,5-triazin-2-yl)thio)methyl)benzene] are -1%, 6%, 21% and 20%.
For `Cc1ccc(CCN2CN=C(SCc3ccccc3CSC3=NCN(CCc4ccc(C)c(C)c4)CN3)NC2)cc1C` [Compound 23, 1,2-bis(((5-(3,4-dimethylphenethyl)-1,4,5,6-tetrahydro-1,3,5-triazin-2-yl)thio)methyl)benzene], the remaining activity at 10 µM was -4% in assay [1], 6% in assay [2], 24% in assay [3] and 18% in assay [4].
For `Cc1ccc(C)c(CCN2CN=C(SCc3ccccc3CSC3=NCN(CCc4cc(C)ccc4C)CN3)NC2)c1` [Compound 24, 1,2-bis(((5-(2,5-dimethylphenethyl)-1,4,5,6-tetrahydro-1,3,5-triazin-2-yl)thio)methyl)benzene], the remaining activity at 10 µM was -2% in assay [1], 4% in assay [2], 25% in assay [3] and 27% in assay [4].
Regarding `COc1ccc(CN2CN=C(SCc3ccccc3CSC3=NCN(Cc4ccc(OC)cc4)CN3)NC2)cc1` [Compound 26, 1,2-bis(((5-(4-methoxybenzyl)-1,4,5,6-tetrahydro-1,3,5-triazin-2-yl)thio)methyl)benzene], the remaining activity at 10 µM is -5% in assay [1], 5% in assay [2], 44% in assay [3] and 36% in assay [4].
In the same order, the values of `COc1ccc(CN2CN=C(SCc3ccccc3CSC3=NCN(Cc4ccc(OC)cc4OC)CN3)NC2)c(OC)c1` [Compound 27, 1,2-bis(((5-(2,4-dimethoxybenzyl)-1,4,5,6-tetrahydro-1,3,5-triazin-2-yl)thio)methyl)benzene] are -3%, 7%, 56% and 33%.

The values are drawn from US12209079B2 (GENERAL INCORPORATED ASSOCIATION PHARMA VALLEY PROJECT …, priority 2017, dated 2025).
